According to publication PMC2820511 (Journal of medicinal chemistry, 2010):

System: MtMetAP1c-complemented E. coli cells
Experiment: Inhibition of MtMetAP1c-complemented E. coli cell growth
Conditions: highest concentration (1 mM) tested

| Structure (SMILES) | growth inhibition at the highest concentration tested |
| --- | --- |
| O=C(O)c1ccc(-c2cc(Cl)ccc2Cl)o1 [compound 3] | no inhibition |
| Nc1nnc(SCc2ccc(F)cc2)[nH]1 [compound 5] | no inhibition |
| Cc1ccc(CSc2nnc(N)[nH]2)cc1 [compound 6] | no inhibition |

Biological target: MtMetAP1c (Mycobacterium tuberculosis, UniProt P9WK19)
Experiment: Inhibition of purified MtMetAP1c apoenzyme activated by divalent metals
Type: biochemical
Conditions: apoenzyme activated by Co(II), Ni(II), Mn(II) or Fe(II)

Sequence of MtMetAP1c (P9WK19 whole entry, looked up): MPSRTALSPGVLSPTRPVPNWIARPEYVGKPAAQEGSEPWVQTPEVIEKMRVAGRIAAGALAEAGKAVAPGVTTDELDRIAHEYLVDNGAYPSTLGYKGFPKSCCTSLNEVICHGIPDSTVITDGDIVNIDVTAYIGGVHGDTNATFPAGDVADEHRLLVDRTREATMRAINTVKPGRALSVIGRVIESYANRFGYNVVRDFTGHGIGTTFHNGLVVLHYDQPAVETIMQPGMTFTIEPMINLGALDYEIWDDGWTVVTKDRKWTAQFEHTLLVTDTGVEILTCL

| Structure (SMILES) | metalloform selectivity of inhibition of purified MtMetAP1c |
| --- | --- |
| Cc1nc(-c2ccc(O)c(O)c2)cs1 [compound 1] | selective for the Fe(II) form |
| Cc1ccsc1-c1ccc(O)c(O)c1 [compound 2] | selective for the Fe(II) form |
| O=C(O)c1ccc(-c2cc(Cl)ccc2Cl)o1 [compound 3] | selective for the Mn(II) form |
